According to ChEMBL document CHEMBL5038570, “Discovery of Novel Pyrrolo[2,3-d]pyrimidine-based Derivatives as Potent JAK/HDAC Dual Inhibitors for the Treatment of Refractory Solid Tumors” (J Med Chem, 2022):
The source made the active and inactive calls. The rule behind the calls is not given here.

Assays:
4T1 [1] = assay: Induction of apoptosis in mouse 4T1 cells assessed as necrotic cells at 10 uM measured after 48 hrs by annexin V-FITC/propidium iodide staining based flow cytometry (reference value: 4.35%); assay type: functional
4T1 [2] = assay: Induction of apoptosis in mouse 4T1 cells assessed as viable cells at 10 uM measured after 48 hrs by annexin V-FITC/propidium iodide staining based flow cytometry (reference value: 89.5%); assay type: functional
MDA-MB-231 [3] = assay: Induction of apoptosis in human MDA-MB-231 cells assessed as early apoptotic cells at 10 uM measured after 48 hrs by annexin V-FITC/propidium iodide staining based flow cytometry (reference value: 3.09%); assay type: functional
MDA-MB-231 [4] = assay: Induction of apoptosis in human MDA-MB-231 cells assessed as necrotic cells at 10 uM measured after 48 hrs by annexin V-FITC/propidium iodide staining based flow cytometry (reference value: 5.38%); assay type: functional
4T1 [5] = assay: Induction of apoptosis in mouse 4T1 cells assessed as early apoptotic cells at 10 uM measured after 48 hrs by annexin V-FITC/propidium iodide staining based flow cytometry (reference value: 1.12%); assay type: functional
MDA-MB-231 [6] = assay type: functional, Mus musculus; conditions: dose 100 mg/kg; time 14 day
4T1 [7] = assay: Induction of apoptosis in mouse 4T1 cells assessed as late apoptotic cells at 10 uM measured after 48 hrs by annexin V-FITC/propidium iodide staining based flow cytometry (reference value: 4.99%); assay type: functional
[8] = target: T1, Protein deacetylase HDAC6 (Homo sapiens) (UniProt Q9UBN7); assay: Inhibition of HDAC6 (unknown origin) at 10 uM incubated for 60 min by microplate reader analysis relative to control
T1 sequence (whole entry): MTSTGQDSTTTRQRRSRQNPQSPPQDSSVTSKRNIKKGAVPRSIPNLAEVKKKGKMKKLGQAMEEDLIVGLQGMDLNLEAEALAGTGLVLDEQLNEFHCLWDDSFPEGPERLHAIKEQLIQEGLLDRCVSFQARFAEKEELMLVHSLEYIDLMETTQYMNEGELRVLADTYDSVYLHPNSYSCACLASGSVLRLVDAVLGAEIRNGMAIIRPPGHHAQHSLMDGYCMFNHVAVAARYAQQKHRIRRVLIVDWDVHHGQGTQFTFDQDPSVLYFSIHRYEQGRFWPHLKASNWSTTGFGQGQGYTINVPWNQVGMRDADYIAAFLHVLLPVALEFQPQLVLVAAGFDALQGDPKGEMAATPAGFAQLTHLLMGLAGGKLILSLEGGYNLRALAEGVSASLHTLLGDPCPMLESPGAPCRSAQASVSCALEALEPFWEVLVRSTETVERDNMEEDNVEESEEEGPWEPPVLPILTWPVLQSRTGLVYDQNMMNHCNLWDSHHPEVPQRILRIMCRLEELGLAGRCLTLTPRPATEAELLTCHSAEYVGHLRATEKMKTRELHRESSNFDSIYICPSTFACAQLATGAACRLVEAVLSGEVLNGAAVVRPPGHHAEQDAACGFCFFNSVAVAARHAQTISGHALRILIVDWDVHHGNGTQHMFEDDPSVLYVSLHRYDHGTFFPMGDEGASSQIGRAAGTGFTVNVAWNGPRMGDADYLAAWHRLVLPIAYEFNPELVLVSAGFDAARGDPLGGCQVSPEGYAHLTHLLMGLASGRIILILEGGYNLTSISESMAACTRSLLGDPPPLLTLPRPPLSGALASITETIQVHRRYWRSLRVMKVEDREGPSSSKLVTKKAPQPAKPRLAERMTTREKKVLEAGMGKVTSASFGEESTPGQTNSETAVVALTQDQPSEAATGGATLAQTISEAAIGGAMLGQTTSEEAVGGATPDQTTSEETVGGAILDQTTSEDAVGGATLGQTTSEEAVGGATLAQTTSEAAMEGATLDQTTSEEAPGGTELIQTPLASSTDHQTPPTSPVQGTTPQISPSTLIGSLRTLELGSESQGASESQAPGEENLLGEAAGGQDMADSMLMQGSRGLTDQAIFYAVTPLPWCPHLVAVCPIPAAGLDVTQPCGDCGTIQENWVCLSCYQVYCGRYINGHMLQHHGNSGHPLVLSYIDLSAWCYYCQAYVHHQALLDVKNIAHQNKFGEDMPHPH

4T1 [9] = assay: Induction of apoptosis in mouse 4T1 cells assessed as rly apoptotic cells at 5 uM measured after 48 hrs in presence of ruxolitinib by annexin V-FITC/propidium iodide staining based flow cytometry (reference value: 1.12%); assay type: functional
4T1 [10] = assay: Induction of apoptosis in mouse 4T1 cells assessed as necrotic cells at 5 uM measured after 48 hrs in presence of ruxolitinib by annexin V-FITC/propidium iodide staining based flow cytometry (reference value: 4.35%); assay type: functional
4T1 [11] = assay: Induction of apoptosis in mouse 4T1 cells assessed as late apoptotic cells at 5 uM measured after 48 hrs in presence of ruxolitinib by annexin V-FITC/propidium iodide staining based flow cytometry (reference value: 4.99%); assay type: functional
MDA-MB-231 [12] = assay: Induction of apoptosis in human MDA-MB-231 cells assessed as viable cells at 2.5 uM measured after 48 hrs in presence of ruxolitinib by annexin V-FITC/propidium iodide staining based flow cytometry (reference value: 85.7%); assay type: functional
MDA-MB-231 [13] = assay: Induction of apoptosis in human MDA-MB-231 cells assessed as viable cells at 2.5 uM measured after 48 hrs by annexin V-FITC/propidium iodide staining based flow cytometry (reference value: 85.7%); assay type: functional
4T1 [14] = assay: Induction of apoptosis in mouse 4T1 cells assessed as viable cells at 5 uM measured after 48 hrs in presence of ruxolitinib by annexin V-FITC/propidium iodide staining based flow cytometry (reference value: 89.5%); assay type: functional
[15] = target: Tyrosine-protein kinase JAK2 (Homo sapiens, UniProt O60674); assay: Inhibition of JAK2 (unknown origin) assessed as inhibition rate at 10 uM incubated for 60 mins by microplate reader analysis relative to control
Tyrosine-protein kinase JAK2, sequence (O60674 whole entry): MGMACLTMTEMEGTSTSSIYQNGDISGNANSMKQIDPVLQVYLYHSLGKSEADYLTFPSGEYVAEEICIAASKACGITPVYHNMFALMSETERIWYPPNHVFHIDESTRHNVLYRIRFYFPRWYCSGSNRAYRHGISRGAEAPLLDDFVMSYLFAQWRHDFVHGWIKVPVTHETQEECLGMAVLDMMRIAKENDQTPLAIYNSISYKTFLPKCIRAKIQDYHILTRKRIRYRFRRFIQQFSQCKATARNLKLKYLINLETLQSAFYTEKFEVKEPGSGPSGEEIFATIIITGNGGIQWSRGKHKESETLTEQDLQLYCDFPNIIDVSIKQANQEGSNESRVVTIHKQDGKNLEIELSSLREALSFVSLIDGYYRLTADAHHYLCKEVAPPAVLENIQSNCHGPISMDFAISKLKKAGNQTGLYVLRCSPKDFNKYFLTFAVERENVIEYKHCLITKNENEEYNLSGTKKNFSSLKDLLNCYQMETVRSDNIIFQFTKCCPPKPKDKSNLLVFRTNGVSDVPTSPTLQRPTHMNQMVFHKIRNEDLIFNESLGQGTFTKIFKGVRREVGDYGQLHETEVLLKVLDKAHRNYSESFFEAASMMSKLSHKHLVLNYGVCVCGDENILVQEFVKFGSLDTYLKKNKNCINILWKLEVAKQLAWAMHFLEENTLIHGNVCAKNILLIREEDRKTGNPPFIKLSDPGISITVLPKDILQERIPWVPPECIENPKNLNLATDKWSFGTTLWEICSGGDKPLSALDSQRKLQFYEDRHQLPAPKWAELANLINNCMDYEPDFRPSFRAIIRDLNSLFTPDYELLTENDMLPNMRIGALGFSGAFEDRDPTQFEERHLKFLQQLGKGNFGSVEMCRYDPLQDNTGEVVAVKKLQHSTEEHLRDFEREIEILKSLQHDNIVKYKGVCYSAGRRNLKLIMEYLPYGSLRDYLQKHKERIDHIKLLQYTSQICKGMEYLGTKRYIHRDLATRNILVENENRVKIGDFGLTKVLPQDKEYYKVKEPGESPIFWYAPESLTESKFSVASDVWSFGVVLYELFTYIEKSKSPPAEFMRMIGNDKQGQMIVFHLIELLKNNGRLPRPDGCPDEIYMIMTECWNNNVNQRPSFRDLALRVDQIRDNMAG

inhibition [8]	inhibition [15]	Compound	Activity (4T1 [1])	Activity (4T1 [2])	Activity (MDA-MB-231 [3])	Activity (MDA-MB-231 [4])	Activity (4T1 [5])	TGI (MDA-MB-231 [6])	Activity (4T1 [7])	Activity (4T1 [9])	Activity (4T1 [10])	Activity (4T1 [11])	Activity (MDA-MB-231 [12])	Activity (MDA-MB-231 [13])	Activity (4T1 [14])
inactive	–	N#CC[C@H](C1CCCC1)n1cc(-c2ncnc3[nH]ccc23)cn1 [RUXOLITINIB]	4.98%	89%	6.09%	6.09%	2.04%	12%	4%	–	–	–	–	–	–
–	inactive	O=C(CCCCCCC(=O)Nc1ccccc1)NO [VORINOSTAT]	–	–	–	–	–	–	–	28.6%	1.23%	4.98%	25.8%	57.3%	65.2%
